Target: PIK3CG (human) (UniProt P48736)
Test: Assessment of PIK3CG Kinase Activity

PIK3CG (human), sequence (P48736 whole entry, looked up): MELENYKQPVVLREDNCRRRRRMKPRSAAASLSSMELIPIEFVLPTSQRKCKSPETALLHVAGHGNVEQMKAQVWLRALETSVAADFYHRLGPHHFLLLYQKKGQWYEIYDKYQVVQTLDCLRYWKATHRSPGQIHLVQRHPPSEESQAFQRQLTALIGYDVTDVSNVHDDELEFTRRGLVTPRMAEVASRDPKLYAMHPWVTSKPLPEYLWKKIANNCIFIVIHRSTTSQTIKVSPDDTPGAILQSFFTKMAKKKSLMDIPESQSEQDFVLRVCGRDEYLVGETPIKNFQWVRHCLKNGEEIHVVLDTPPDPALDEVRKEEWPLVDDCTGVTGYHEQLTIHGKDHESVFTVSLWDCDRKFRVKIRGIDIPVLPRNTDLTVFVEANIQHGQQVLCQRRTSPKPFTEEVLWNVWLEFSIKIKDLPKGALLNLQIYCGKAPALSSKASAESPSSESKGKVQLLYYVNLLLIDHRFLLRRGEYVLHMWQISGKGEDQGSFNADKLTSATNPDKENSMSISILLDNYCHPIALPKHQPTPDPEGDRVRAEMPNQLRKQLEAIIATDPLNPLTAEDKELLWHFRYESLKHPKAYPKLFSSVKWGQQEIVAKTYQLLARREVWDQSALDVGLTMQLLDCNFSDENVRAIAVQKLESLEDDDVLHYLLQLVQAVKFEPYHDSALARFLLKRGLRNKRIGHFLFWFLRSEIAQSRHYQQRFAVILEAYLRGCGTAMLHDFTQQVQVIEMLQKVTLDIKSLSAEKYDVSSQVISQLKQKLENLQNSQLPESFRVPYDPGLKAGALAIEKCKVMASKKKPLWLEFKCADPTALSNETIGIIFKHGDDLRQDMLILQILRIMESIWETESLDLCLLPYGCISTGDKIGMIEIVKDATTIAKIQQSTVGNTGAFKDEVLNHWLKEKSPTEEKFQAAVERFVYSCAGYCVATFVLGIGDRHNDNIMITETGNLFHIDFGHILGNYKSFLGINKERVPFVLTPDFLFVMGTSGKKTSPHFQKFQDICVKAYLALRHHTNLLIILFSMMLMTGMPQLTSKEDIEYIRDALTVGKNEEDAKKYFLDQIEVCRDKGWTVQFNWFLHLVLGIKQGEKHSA

IC50 [nM] | Structure (SMILES)
< 800 | CCc1nnc(CCNC(=O)Nc2nc3c(s2)-c2nc(-c4ccccc4F)ncc2CC3)o1
< 800 | CC1(C)NC(=O)N(Cc2ccc(CNC(=O)Nc3nc4c(s3)-c3nc(-c5ccccc5Cl)ncc3CC4)cc2)C1=O
< 800 | CNC(=O)CCNC(=O)Nc1nc2c(s1)-c1nc(-c3ccccc3Cl)ncc1CC2
< 800 | CC(C)(C)CC(=O)N[C@H]1CCN(C(=O)Nc2nc3c(s2)-c2nc(-c4ccccc4Cl)ncc2CC3)C1
< 800 | CC(C)CC(=O)Nc1cccc(CNC(=O)Nc2nc3c(s2)-c2nc(-c4ccccc4Cl)ncc2CC3)c1
< 800 | O=C(Nc1nc2c(s1)-c1nc(-c3ccccc3Cl)ncc1CC2)N1CC[C@H](NS(=O)(=O)N2CCCC2)C1
< 800 | O=C(NCc1cccc(N2CCCCC2)c1)Nc1nc2c(s1)-c1nc(-c3ccccc3Cl)ncc1CC2
< 800 | COC(=O)N[C@@H]1CCN(C(=O)Nc2nc3c(s2)-c2nc(-c4ccccc4Cl)ncc2CC3)C1
< 800 | Cn1ccnc1CNC(=O)Nc1nc2c(s1)-c1nc(-c3ccccc3Cl)ncc1CC2
< 800 | CC(C)NC(=O)Nc1cccc(CNC(=O)Nc2nc3c(s2)-c2nc(-c4ccccc4Cl)ncc2CC3)c1
< 800 | O=C(NC[C@H]1CCCN1)Nc1nc2c(s1)-c1nc(-c3ccccc3Cl)ncc1CC2
< 800 | CCNC(=O)Nc1nc2c(s1)-c1nc(-c3cccc(F)c3Cl)ncc1CC2
< 800 | Nc1cccc(CNC(=O)Nc2nc3c(s2)-c2nc(-c4ccccc4Cl)ncc2CC3)c1
< 800 | CC(C)(C)OC(=O)N[C@@H]1CCN(C(=O)Nc2nc3c(s2)-c2nc(-c4ccccc4Cl)ncc2CC3)C1
< 800 | CN1CCC(O)C2(CCCN(C(=O)Nc3nc4c(s3)-c3nc(-c5ccccc5Cl)ncc3CC4)C2)C1 (configuration not stated)
< 800 | CN(C)C(=O)Nc1nc2c(s1)-c1nc(-c3ccccc3C(F)(F)F)ncc1CC2
< 800 | CC(C)C(=O)N[C@@H]1CCN(C(=O)Nc2nc3c(s2)-c2nc(-c4ccccc4Cl)ncc2CC3)C1
< 800 | O=C1CC[C@H](NC(=O)Nc2nc3c(s2)-c2nc(-c4ccccc4Cl)ncc2CC3)CN1
< 800 | CC(C)(C)CC(=O)N[C@@H]1CCN(C(=O)Nc2nc3c(s2)-c2nc(-c4ccccc4Cl)ncc2CC3)C1
< 800 | CNC(=O)Nc1nc2c(s1)-c1nc(-c3ccccc3Cl)ncc1CC2
< 800 | CN(C)C(=O)N[C@H]1CCN(C(=O)Nc2nc3c(s2)-c2nc(-c4ccccc4Cl)ncc2CC3)C1
< 800 | CC(C)(C)OC(=O)N1CCCCC1CNC(=O)Nc1nc2c(s1)-c1nc(-c3ccccc3Cl)ncc1CC2 (configuration not stated)

Source: the Kinase Knowledgebase extract (Sharma et al. 2016)
